Measured values published in PubChem BioAssay AID790 (SRMLSC, 2007).
Calls of active or inactive are those of the source. How the calls were made is not given here.

Tests used:
[1] = growth inhibition of yeast vps1Δ mutant, dose response, S. cerevisiae, background strain comparison (AID 790); details: S. cerevisiae vps1Δ mutant growth inhibition; measured here: background strain growth inhibition
[2] = test system: S. cerevisiae vps1Δ mutant growth inhibition; assay: as above

SMILES	IC50 [1] [µM]	IC50 [2]
O=C(NCCc1ccccc1)C1CCN(S(=O)(=O)N2CCCC2)CC1	> 10	> 10 µM (inactive)
O=C(COc1ccc(Cl)cc1Cl)N1CCN(C/C=C/c2ccccc2)CC1	7.14	13.2 µM (inactive)
CC(C)OC(=O)CSc1nnc(-c2ccc(Cl)cc2)n1N	> 10	> 10 µM (inactive)
COc1ccc(NC(=O)N(C2CCCCC2)C(C)c2cccnc2)c(OC)c1 (configuration not stated)	16.7	16.5 µM
Cc1ccc(C)c(C(=O)NCc2ccncc2)c1	> 10	> 10 µM (inactive)
O=S(=O)(c1ccc(Cl)cc1)N1CCN(C2CCN(Cc3ccccc3)CC2)CC1	> 10	> 10 µM (inactive)
N=c1c2c(-c3ccccc3)c(-c3ccccc3)n(Cc3ccco3)c2ncn1Cc1ccco1	21.5	> 10 µM (inactive)
O=C(Cn1ncc2c3ccccc3n(Cc3ccccc3F)c2c1=O)N1CCC2(CC1)OCCO2	> 10	> 10 µM (inactive)
O=C(Nc1nnc(-c2ccc3c(c2)CCCC3)o1)c1ccc(Cl)cc1Cl	3.46	1.18 µM
Cc1cccc(-n2c(N)c(C(=O)NCCN3CCOCC3)c3nc4ccccc4nc32)c1	> 10	> 10 µM (inactive)
CC(C)c1ccc(C2C3CSCC=C3C(C#N)=C(N)C2(C#N)C#N)cc1 (configuration not stated)	0.843	1.77 µM (inactive)
CCOc1cccc(C(=O)Nc2cccnc2)c1	> 10	> 10 µM (inactive)
CC1CN(CC(O)COc2ccc(C(C)C)cc2)CC(C)O1 (configuration not stated)	> 10	> 10 µM (inactive)
CS(=O)(=O)N1CCC(C(=O)NCCN2CCN(Cc3ccccc3)CC2)CC1	> 10	> 10 µM (inactive)
Cn1c(=O)c2nc(NCc3ccccc3)cnc2n(C)c1=O	> 10	> 10 µM (inactive)
O=C(Nc1ccccc1)C1=C(O)CC(c2ccco2)CC1=Nc1ccccc1 (configuration not stated)	> 10	> 10 µM (inactive)
O=C1OCC(CO)(CO)N=C1NNc1ccc(Cl)c(Cl)c1	3.35	2.43 µM
COc1ccc(C(=O)Nc2ccc(Cl)cc2C(=O)N2CCCC(C)C2)cc1 (configuration not stated)	> 10	> 10 µM (inactive)
CC(=O)c1cnc2nc(C)nn2c1C	> 10	> 10 µM (inactive)
Cc1ccc2nc(C)cc(OCC(=O)O)c2c1	> 10	> 10 µM (inactive)
Cc1c(C)c2cc(Cl)c(O)c(CN3CCN(C)CC3)c2oc1=O	> 10	> 10 µM (inactive)

SMILES	IC50 [1] [µM]	IC50 [2]
CCOC(=O)c1ccc(NC(=O)c2cn(-c3ccccc3)nc2-c2ccncc2)cc1	11.5	> 10 µM (inactive)
CN1/C(=C/C2CC(=O)NC2=O)C(C)(C)c2ccccc21 (configuration not stated)	> 10	> 10 µM (inactive)
N#Cc1nc(COc2ccc(-c3ccccc3)cc2)oc1NCCCN1CCOCC1	15.4	21.4 µM (inactive)
CCOC(=O)c1cccnc1SCc1cc(=O)n2ccccc2n1	> 10	> 10 µM (inactive)
O=C(N/N=C/c1ccc(OC(=O)c2ccccc2)cc1)c1ccc(CN2CCOCC2)cc1	> 10	> 10 µM (inactive)
Cc1cc(=O)[nH]c(SCC(=O)c2ccc(C)c(C)c2)n1	2.31	0.896 µM
Cc1cccc(-c2nnc(-c3cccc(NC(=O)Cc4cccs4)c3)o2)c1	15.2	> 10 µM (inactive)
CCOC(=O)C1=C(N)N2C(=O)C(C)SC2=C(C(=O)OC)C1c1ccccc1OC (configuration not stated)	0.163	> 10 µM (inactive)
Nc1cc(N)c(OCC(F)(F)F)cc1OCC(F)(F)F	> 10	> 10 µM (inactive)
Cc1cccc(CS(=O)(=O)Cc2ccc(C(=O)NCCCN3CCCC3)o2)c1	> 10	> 10 µM (inactive)
Cc1ccc(C(=O)OCn2ncc(Cl)c(Cl)c2=O)cc1	4.62	4.06 µM
CCCCC(=O)Nc1nc(C)c(-c2csc(Nc3ccc(Cl)cc3)n2)s1	6.26	6.39 µM (inactive)
Cc1ccc(N2CCN(S(=O)(=O)N3CCCCCC3)CC2)cc1Cl	> 10	> 10 µM (inactive)
Cc1ccc(S(=O)(=O)N2CCN(C3CCN(Cc4ccccc4)CC3)CC2)cc1	> 10	> 10 µM (inactive)
O=C(COc1ccc(Cl)cc1Cl)NCCCN1CCOCC1	> 10	> 10 µM (inactive)
O=C(NCCSCc1ccc(Cl)cc1Cl)c1ccc(CN2CCOCC2)cc1	> 10	> 10 µM (inactive)
CCn1c(-c2c[nH]c3ccccc23)n[nH]c1=S	> 10	> 10 µM (inactive)
Cc1cc(C(C)(C)C)ccc1OCCN1CCCC1	> 10	> 10 µM (inactive)
Fc1ccc(Cn2nnc(-c3ccc(CN4CCOCC4)cc3)n2)cc1	> 10	> 10 µM (inactive)
CCC(=O)N(CCO)Cc1cc2ccc(C)c(C)c2[nH]c1=O	> 10	> 10 µM (inactive)
